ChEMBL document CHEMBL1121607, “A novel opioid receptor site directed alkylating agent with irreversible narcotic antagonistic and reversible agonistic activities” (J Med Chem, 1980)

Species: Cavia porcellus
Assay: Tested for potent reversible agonist activity on electrically stimulated guinea pig ileal longitudinal muscle preparation
Format: functional, organism-based
Settings: Muscle tissue

| SMILES | IC50 [nM] |
| --- | --- |
| COC(=O)/C=C/C(=O)N[C@@H]1CC[C@@]2(O)C3Cc4ccc(O)c5c4C2(CCN3C)[C@H]1O5 (stereo partly drawn) | 27 |
| COC(=O)/C=C/C(=O)N[C@@H]1CC[C@@]2(O)[C@H]3Cc4ccc(O)c5c4[C@@]2(CCN3CC2CC2)[C@H]1O5 | 4.8 |
| O=C1CC[C@@]2(O)[C@H]3Cc4ccc(O)c5c4[C@@]2(CCN3CC2CC2)[C@H]1O5 [NALTREXONE] | 50 |
